Assay results: ChEMBL document CHEMBL1938241, “Design, synthesis, and activity evaluation of broad-spectrum small-molecule inhibitors of anti-apoptotic Bcl-2 family proteins: characteristics of broad-spectrum protein binding and its effects on anti-tumor activity” (Bioorg Med Chem Lett, 2012)

Key:
[1] = tested on: HCT-116; test: Cytotoxicity against human HCT116 cells expressing Bcl-xL, Bcl-2 and Mcl-1 after 72 hrs by MTT assay; type: functional, cell-based; details: HCT-116, 72 h
[2] = tested on: Raji; test: Cytotoxicity against human Raji cells expressing Bcl-xL, Bcl-2 and Mcl-1 after 72 hrs by MTT assay; type: functional, cell-based
[3] = biological target: Induced myeloid leukemia cell differentiation protein Mcl-1 (Homo sapiens, UniProt Q07820); test: Binding affinity to Mcl-1 by competitive fluorescence polarization assay
[4] = biological target: Bcl-2-like protein 1 (Homo sapiens, UniProt Q07817); test: Binding affinity to Bcl-xL by competitive fluorescence polarization assay
[5] = tested on: MDA-MB-435; test: Cytotoxicity against human MDA-MB-435 cells expressing Bcl-xL, Bcl-2 and Mcl-1 after 72 hrs by MTT assay; type: functional, cell-based; details: MDA-MB-435, 72 h
[6] = biological target: Apoptosis regulator Bcl-2 (Homo sapiens, UniProt P10415); test: Binding affinity to Bcl-2 by competitive fluorescence polarization assay
[7] = tested on: MDA-MB-435; test: Cytotoxicity against human MDA-MB-435 cells expressing Bcl-xL, Bcl-2 and Mcl-1 at 100 ug/ml after 72 hrs by MTT assay relative to control; type: functional; details: MDA-MB-435, 72 h, read-out: GI
[8] = tested on: Raji; test: Cytotoxicity against human Raji cells expressing Bcl-xL, Bcl-2 and Mcl-1 at 100 ug/ml after 72 hrs by MTT assay relative to control; type: functional; details: read-out: GI

Chain of Bcl-2-like protein 1 (Q07817 whole entry): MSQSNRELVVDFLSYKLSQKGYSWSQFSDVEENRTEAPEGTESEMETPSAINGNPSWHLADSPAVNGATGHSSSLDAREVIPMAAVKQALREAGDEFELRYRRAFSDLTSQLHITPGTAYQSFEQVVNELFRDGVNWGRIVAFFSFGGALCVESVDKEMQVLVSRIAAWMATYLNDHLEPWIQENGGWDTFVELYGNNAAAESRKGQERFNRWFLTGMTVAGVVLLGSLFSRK
Chain of Apoptosis regulator Bcl-2 (P10415 whole entry): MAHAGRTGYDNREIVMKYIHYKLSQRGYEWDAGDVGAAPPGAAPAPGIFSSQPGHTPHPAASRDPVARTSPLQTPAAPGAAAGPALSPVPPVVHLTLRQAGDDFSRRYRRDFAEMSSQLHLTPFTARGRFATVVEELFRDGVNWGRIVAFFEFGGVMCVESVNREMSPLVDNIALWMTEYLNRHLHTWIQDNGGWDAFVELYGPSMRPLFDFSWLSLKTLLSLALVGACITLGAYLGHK
Chain of Induced myeloid leukemia cell differentiation protein Mcl-1 (Q07820 whole entry): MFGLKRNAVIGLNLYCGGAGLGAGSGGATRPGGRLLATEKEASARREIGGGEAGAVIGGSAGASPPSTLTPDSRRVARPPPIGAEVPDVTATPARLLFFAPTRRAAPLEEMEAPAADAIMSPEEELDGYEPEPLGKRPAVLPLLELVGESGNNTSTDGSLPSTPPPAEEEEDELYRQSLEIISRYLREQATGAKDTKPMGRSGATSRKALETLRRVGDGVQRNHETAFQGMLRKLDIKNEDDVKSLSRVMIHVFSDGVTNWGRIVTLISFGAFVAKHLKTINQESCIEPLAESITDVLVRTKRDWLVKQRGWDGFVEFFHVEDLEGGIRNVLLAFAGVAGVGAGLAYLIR

| Ki [3] | Ki [4] | Ki [6] | Structure (SMILES) | IC50 [1] | IC50 [2] | IC50 [5] | inhibition of growth at 100 µg/mL [7] | inhibition of growth at 100 µg/mL [8] |
| --- | --- | --- | --- | --- | --- | --- | --- | --- |
| 4.1 µM | 1.5 µM | 0.76 µM | O=C(Nc1ccc(C(=O)NS(=O)(=O)c2ccc(NCCSc3ccccc3)c([N+](=O)[O-])c2)cc1)c1ccc(Br)cc1 | 10.5 µM | 35 µM | 39.5 µM | – | – |
| – | – | – | O=C(NS(=O)(=O)c1ccc(NCCSc2ccccc2)c([N+](=O)[O-])c1)c1ccc(NC(=O)c2ccccc2Cl)cc1 | > 164 µM | 41.2 µM | 69.9 µM | – | – |
| 3.09 µM | 2.08 µM | 1.4 µM | O=C(Nc1ccc(C(=O)NS(=O)(=O)c2ccc(NCCSc3ccccc3)c([N+](=O)[O-])c2)cc1)c1cccc(F)c1 | > 168 µM | 39.4 µM | 59.5 µM | – | – |
| 1.8 µM | 5.82 µM | 3.78 µM | CC(=O)N[C@@H](CC(C)C)C(=O)Nc1ccc(C(=O)NS(=O)(=O)c2ccc(NCCSc3ccccc3)c([N+](=O)[O-])c2)cc1 | – | – | – | 25.6% | 58.3% |
| 4.16 µM | 2.51 µM | 1.67 µM | O=C(Nc1ccc(C(=O)NS(=O)(=O)c2ccc(NCCSc3ccccc3)c([N+](=O)[O-])c2)cc1)c1ccccc1 | 136 µM | 39.8 µM | 59.9 µM | – | – |
| 3.02 µM | 1.71 µM | 1.09 µM | O=C(NS(=O)(=O)c1ccc(NCCSc2ccccc2)c([N+](=O)[O-])c1)c1ccc(NC(=O)c2ccccc2F)cc1 | 40 µM | 32.2 µM | 48.1 µM | – | – |
| 3.11 µM | 3.91 µM | 3.52 µM | CSCC[C@H](NC(C)=O)C(=O)Nc1ccc(C(=O)NS(=O)(=O)c2ccc(NCCSc3ccccc3)c([N+](=O)[O-])c2)cc1 | – | – | – | 16% | 40.1% |
| 4.03 µM | 6.45 µM | 0.83 µM | CC(=O)N[C@@H](Cc1c[nH]c2ccccc12)C(=O)Nc1ccc(C(=O)NS(=O)(=O)c2ccc(NCCSc3ccccc3)c([N+](=O)[O-])c2)cc1 | – | – | – | 9.36% | 31.8% |
| – | – | – | Cc1cccc(C(=O)Nc2ccc(C(=O)NS(=O)(=O)c3ccc(NCCSc4ccccc4)c([N+](=O)[O-])c3)cc2)c1 | 169 µM | 92.6 µM | > 169 µM | – | – |
| – | – | – | O=C(Nc1ccc(C(=O)NS(=O)(=O)c2ccc(NCCSc3ccccc3)c([N+](=O)[O-])c2)cc1)c1cccc(Cl)c1 | 33.1 µM | 37.5 µM | 46.7 µM | – | – |
| 2.54 µM | 1.94 µM | 0.93 µM | O=C(Nc1ccc(C(=O)NS(=O)(=O)c2ccc(NCCSc3ccccc3)c([N+](=O)[O-])c2)cc1)c1ccc(F)cc1 | 78.9 µM | 38.6 µM | 57.5 µM | – | – |
| – | – | – | O=C(Nc1ccc(C(=O)NS(=O)(=O)c2ccc(NCCSc3ccccc3)c([N+](=O)[O-])c2)cc1)c1ccc(Cl)cc1 | 43.4 µM | 37.5 µM | 49.9 µM | – | – |
| 7.22 µM | 2.29 µM | 15.2 µM | O=C(NS(=O)(=O)c1ccc(NCCSc2ccccc2)c([N+](=O)[O-])c1)c1ccc(NS(=O)(=O)c2ccccc2)cc1 | 163 µM | > 163 µM | > 163 µM | – | – |
| 3.27 µM | 16.4 µM | 9.49 µM | CC(=O)N[C@H](C(=O)Nc1ccc(C(=O)NS(=O)(=O)c2ccc(NCCSc3ccccc3)c([N+](=O)[O-])c2)cc1)C(C)C | – | – | – | 6.33% | 8.85% |
| – | – | – | CN(C)CC[C@H](CSc1ccccc1)Nc1ccc(S(=O)(=O)NC(=O)c2ccc(N3CCN(Cc4ccccc4-c4ccc(Cl)cc4)CC3)cc2)cc1[N+](=O)[O-] [ABT 737] | 47.7 µM | 93.5 µM | > 123 µM | 55.4% | 42.5% |
| 2.29 µM | 4.84 µM | 3.38 µM | CC[C@H](C)[C@H](NC(C)=O)C(=O)Nc1ccc(C(=O)NS(=O)(=O)c2ccc(NCCSc3ccccc3)c([N+](=O)[O-])c2)cc1 | – | – | – | 13.5% | 40.9% |
| 3.11 µM | 3.42 µM | 3.39 µM | CC(=O)N[C@@H](Cc1ccccc1)C(=O)Nc1ccc(C(=O)NS(=O)(=O)c2ccc(NCCSc3ccccc3)c([N+](=O)[O-])c2)cc1 | – | – | – | 36.6% | 26.8% |
| – | – | – | Cc1ccc(C(=O)Nc2ccc(C(=O)NS(=O)(=O)c3ccc(NCCSc4ccccc4)c([N+](=O)[O-])c3)cc2)cc1 | 48.6 µM | 38.8 µM | 53 µM | – | – |
| 3.11 µM | 1.27 µM | 0.8 µM | COc1ccc(C(=O)Nc2ccc(C(=O)NS(=O)(=O)c3ccc(NCCSc4ccccc4)c([N+](=O)[O-])c3)cc2)cc1 | 14.6 µM | 22.9 µM | 36.1 µM | – | – |
| – | – | – | Cc1ccccc1C(=O)Nc1ccc(C(=O)NS(=O)(=O)c2ccc(NCCSc3ccccc3)c([N+](=O)[O-])c2)cc1 | 161 µM | 38.8 µM | 47.6 µM | – | – |
